Experimental data as given in patent publication US20240228446A1, “PREPARATION METHOD FOR BICYCLIC COMPOUND AND APPLICATION AS ANTIFUNGAL AGENT” (priority 2021, published 2024).
≈ marks a conversion by molar mass, not a printed value. Like-named read-outs stand apart in the source and are kept apart here.

Legend:
[1] = tested on: Candida albicans ATCC MYA-2876; assay: Minimal inhibitory concentration (MIC) test on fungal growth (CLSI M27, yeasts); type: cell-based; conditions: for MIC: Candida albicans, read-out: MIC Candida albicans ATCC MYA-2876
Experimental: (§1) • RPMI1640 medium: Brand: Gibco, article number: 31800-014 • Sabouraud dextrose agar (SDA): Brand: Hope Bio, article number: HB0253-81 • Voriconazole: Brand: Adamas, article number: 22105A • Amphotericin B: Brand: AbCam, article number: ab141199
(§2) MIC test was conducted in accordance with the guidelines and requirements of CLSI M27 (for yeasts) and M38 (for Aspergillus).
(§3) Strain preparation: The strains were inoculated 1 day in advance by streaking on SDA plates with glycerol strains stored at −80° C. The strains were cultured at 35° C. and 40 to 60% humidity for 18 to 24 hours. Streak inoculation of Aspergillus fumigatus and Cryptococcus neoformans was required to be done 3 days and 2 days in advance, respectively.
(§4) Preparation of culture medium and compounds: The liquid culture medium RPMI was prepared with pure water, and 0.165 mol/L MOPS was added to adjust the pH to 7.0. The mixture was filtered with a 0.22 μm-membrane filter, sterilized, and stored at 4° C. (no more than 3 months). 0.85% physiological saline was sterilized at 121° C. for 30 min and then stored at room temperature (no more than 1 week). The compounds were dissolved in DMSO to 12.8 mg/mL and stored at −20° C.
For yeast, 3 to 5 colonies were selected from the SDA plate on the day of testing and fully suspended in 5 mL of sterilized 0.85% physiological saline. The turbidity of the bacterial suspension was measured with a turbidimeter, and the turbidity was adjusted to approximately 0.2. The bacterial suspension was 50-fold and 20-fold (1000-fold in total) diluted in RPMI1640 medium, respectively, to serve as the inoculum. The final inoculum concentration was 500 to 2500 CFU/mL.
(§5) The compound was diluted to the highest 800 μg/mL (or 400 μg/mL) with DMSO, and a 10-step 2-fold gradient dilution was performed, resulting in 11 concentrations. 2 μL of the gradient-diluted compound was transferred to the corresponding wells of a 96-well plate, and then 198 μL of the inoculum was transferred to the test plate. The plate was incubated at 35° C. for 24 hours (Aspergillus fumigatus and Cryptococcus neoformans were incubated for 48 and 72 hours, respectively).
(§6) After the incubation, the growth of the fungi was visually observed. The lowest concentration of the compound that inhibited the growth of yeast by 50% (inhibited Aspergillus by 100%) was defined as the minimum inhibitory concentration (MIC, μg/mL). A magnifying glass or reading at OD530 nm could be used to assist in determining the MIC. Photos were taken of the test plates for record keeping.

[2] = tested on: Aspergillus fumigatus ATCC MYA-4609; assay: Minimal inhibitory concentration (MIC) test on fungal growth (CLSI M38, Aspergillus); type: cell-based; conditions: for MIC: Aspergillus fumigatus, read-out: MIC Aspergillus fumigatus ATCC MYA-4609
Experimental: as §1, §2, §3, §4
For Aspergillus, 5 mL of physiological saline was added to cover the mycelium, and the spores were gently scraped off with a spreader. The spore suspension was then transferred to a sterile test tube. An appropriate amount of spore suspension was taken and counted under a microscope using a hemocytometer. Spore concentration was adjusted to approximately 0.4 to 5×10^4 spores/mL using RPMI1640 medium.
as §5, §6

[3] = lowest concentration inhibiting growth of yeast by 50%, 35° C., 24 hours, RPMI1640
[4] = lowest concentration inhibiting Aspergillus by 100%, 35° C., 48 hours, RPMI1640

Row | SMILES | MIC [1, 3] [µg/mL] | other results
1 | CNC(=O)COc1ccc(C23CC(C(F)(F)[C@](O)(Cn4cncn4)c4ccc(F)cc4F)(C2)C3)cc1 [Compound 35A] |  | MIC Candida albicans ATCC MYA-2876 [1, 3]: ≤0.0039 µg/mL; MIC Aspergillus fumigatus ATCC MYA-4609 [2, 4]: 1 µg/mL (≈ 1.98 µM)
2 | O[C@H](COc1ccc(C23CC(C(F)(F)C(O)(Cn4cnnn4)c4ccc(F)cc4F)(C2)C3)cc1F)C(F)(F)F (some centres unmarked) [Compound 134] | 0.0078 (≈ 0.0138 µM) | MIC [2, 4]: 4 µg/mL (≈ 7.09 µM)
3 | O[C@@H](COc1ccc(C23CC(C(F)(F)[C@](O)(Cn4cnnn4)c4ccc(F)cc4F)(C2)C3)cn1)C(F)(F)F [Compound 97A] |  | MIC Candida albicans ATCC MYA-2876 [1, 3]: ≤0.0039 µg/mL; MIC Aspergillus fumigatus ATCC MYA-4609 [2, 4]: 4 µg/mL (≈ 7.31 µM)
4 | OC1(COc2ccc(C34CC(C(F)(F)C(O)(Cn5cncn5)c5ccc(F)cc5F)(C3)C4)cc2)COC1 (centres unmarked) [Compound 151] | ≤ 0.0039 | MIC [2, 4]: 2 µg/mL (≈ 3.85 µM)
5 | OC(Cn1cnnn1)(c1ccc(F)cc1F)C(F)(F)C12CC(c3ccc(OCCN4CCOCC4)cc3)(C1)C2 (centres unmarked) [Compound 65] |  | MIC ([1]; 24 h): 0.0078 µg/mL (≈ 0.0142 µM); MIC ([2]; 48 h): 32 µg/mL (≈ 58.4 µM)
6 | N#Cc1ccc(C23CC(C(F)(F)C(O)(Cn4cncn4)c4cc(F)ccc4F)(C2)C3)cc1 (centres unmarked) [Compound 29] | ≤ 0.0039 | MIC [2, 4]: 2 µg/mL (≈ 4.52 µM)
7 | O[C@@H](COc1ccc(C23CC(C(F)(F)[C@](O)(Cn4cnnn4)c4ccc(F)cc4F)(C2)C3)cc1)CC(F)(F)F (relative stereo) [Compound 142B] | ≤ 0.0039 | MIC [2, 4]: 4 µg/mL (≈ 7.14 µM)
8 | N#CCOc1ccc(C23CC(C(F)(F)C(O)(Cn4cnnn4)c4ccc(F)cc4F)(C2)C3)cc1 (centres unmarked) [Compound 69] |  | MIC ([1]; 24 h): 0.016 µg/mL (≈ 0.0338 µM); MIC ([2]; 48 h): 4 µg/mL (≈ 8.45 µM)
9 | OC(Cn1cnnn1)(c1ccc(F)cc1F)C(F)(F)C12CC(c3ccc(OCC(F)(F)F)cc3)(C1)C2 (centres unmarked) [Compound 3] | 0.03 (≈ 0.0581 µM) | MIC [2, 4]: 2 µg/mL (≈ 3.87 µM)
10 | O=C(COc1ccc(C23CC(C(F)(F)C(O)(Cn4cncn4)c4ccc(F)cc4F)(C2)C3)cc1)NC1CC1 (centres unmarked) [Compound 129] | 0.0078 (≈ 0.0147 µM) | MIC [2, 4]: 4 µg/mL (≈ 7.54 µM)
11 | OC(Cn1cnnn1)(c1ccc(F)cc1F)C(F)(F)C12CC(c3ccc(OC[C@H]4CCCO4)cc3)(C1)C2 (some centres unmarked) [Compound 76] |  | MIC ([1]; 24 h): 0.016 µg/mL (≈ 0.0309 µM); MIC ([2]; 48 h): 8 µg/mL (≈ 15.4 µM)
12 | O[C@H](COc1ccc(C23CC(C(F)(F)C(O)(Cn4cnnn4)c4cc(F)ccc4F)(C2)C3)cc1)C(F)(F)F (stereo in doubt) [Compound 165] | 0.03 (≈ 0.0549 µM) | MIC [2, 4]: 4 µg/mL (≈ 7.32 µM)
13 | OC(Cn1cncn1)(c1ccc(F)cc1F)C(F)(F)C12CC(c3ccc(OCC(F)(F)F)cc3)(C1)C2 (centres unmarked) [Compound 2] | 0.0078 (≈ 0.0151 µM) | MIC [2, 4]: 1 µg/mL (≈ 1.94 µM)
14 | O[C@@](Cn1cnnn1)(c1ccc(F)cc1F)C(F)(F)C12CC(c3ccc(OCC(F)(F)F)nc3)(C1)C2 [Compound 46A] |  | MIC Candida albicans ATCC MYA-2876 [1, 3]: 0.0078 µg/mL (≈ 0.0151 µM); MIC Aspergillus fumigatus ATCC MYA-4609 [2, 4]: 2 µg/mL (≈ 3.87 µM)
15 | O[C@H](COc1ccc(C23CC(C(F)(F)[C@](O)(Cn4cnnn4)c4ccc(F)cc4F)(C2)C3)cc1)CC(F)(F)F (relative stereo) [Compound 142A] | ≤ 0.0039 | MIC [2, 4]: 4 µg/mL (≈ 7.14 µM)
16 | OC(COc1ccc(C23CC(C(F)(F)C(O)(Cn4cncn4)c4ccc(F)cc4F)(C2)C3)cn1)C(F)(F)F (centres unmarked) [Compound 98] |  | MIC Candida albicans ATCC MYA-2876 [1, 3]: ≤0.0039 µg/mL; MIC Aspergillus fumigatus ATCC MYA-4609 [2, 4]: 2 µg/mL (≈ 3.66 µM)
17 | OC(Cn1cncn1)(c1ccc(F)cc1F)C(F)(F)C12CC(c3ccc(OC(F)(F)F)cc3)(C1)C2 (centres unmarked) [Compound 25] | 0.0078 (≈ 0.0156 µM) | MIC [2, 4]: 2 µg/mL (≈ 3.99 µM)
18 | O[C@](Cn1cnnn1)(c1cc(F)ccc1F)C(F)(F)C12CC(c3ccc(OCC(F)(F)F)cc3)(C1)C2 [Compound 9A] |  | MIC Candida albicans ATCC MYA-2876 [1, 3]: 0.06 µg/mL (≈ 0.116 µM)
19 | OC(Cn1cnnn1)(c1ccc(F)cc1F)C(F)(F)C12CC(C3=CCN(CC(F)(F)F)CC3)(C1)C2 (centres unmarked) [Compound 118] |  | MIC Candida albicans ATCC MYA-2876 [1, 3]: 0.0078 µg/mL (≈ 0.0154 µM)
20 | N[C@@](Cn1cnnn1)(c1ccc(F)cc1F)C(F)(F)C12CC(c3ccc(OCC(F)(F)F)cc3)(C1)C2 (stereo in doubt) [Compound 4A] | 0.06 (≈ 0.116 µM) | 

Row | SMILES | MIC [1, 3] [µg/mL] | other results
21 | NS(=O)(=O)Oc1ccc(C23CC(C(F)(F)C(O)(Cn4cnnn4)c4ccc(F)cc4F)(C2)C3)cc1 (centres unmarked) [Compound 68] | 0.13 (≈ 0.253 µM) | 
22 | OC(Cn1cnnn1)(c1ccc(F)cc1F)C(F)(F)C12CC(c3ccc(OCC(F)(F)F)cn3)(C1)C2 (centres unmarked) [Compound 105] |  | MIC ([1]; 24 h): 0.016 µg/mL (≈ 0.0309 µM)
23 | CNC(=O)COc1ccc(C23CC(C(F)(F)[C@](O)(Cn4cnnn4)c4ccc(F)cc4F)(C2)C3)cc1 [Compound 34A] |  | MIC Candida albicans ATCC MYA-2876 [1, 3]: 0.0078 µg/mL (≈ 0.0154 µM)
24 | O[C@](Cn1cncn1)(c1ccc(F)cc1F)C(F)(F)C12CC(c3ccc(OCC(F)(F)F)cc3)(C1)C2 (stereo in doubt) [Compound 2B] | 0.25 (≈ 0.485 µM) | 
25 | OC1(COc2ccc(C34CC(C(F)(F)C(O)(Cn5cnnn5)c5ccc(F)cc5F)(C3)C4)cc2)CC1 (centres unmarked) [Compound 147] | 0.016 (≈ 0.0317 µM) | 
26 | OC1CC(Oc2ccc(C34CC(C(F)(F)C(O)(Cn5cnnn5)c5ccc(F)cc5F)(C3)C4)cc2)C1 (centres unmarked) [Compound 39] | 0.0078 (≈ 0.0155 µM) | 
27 | O[C@H](COc1ccc(C23CC(CC(O)(Cn4cnnn4)c4ccc(F)cc4F)(C2)C3)cc1)C(F)(F)F (some centres unmarked) [Compound 89] | 0.016 (≈ 0.0313 µM) | 
28 | COc1ccc(C23CC(C(F)(F)[C@@](O)(Cn4cnnn4)c4ccc(F)cc4F)(C2)C3)cc1 (stereo in doubt) [Compound 1B] | 0.5 (≈ 1.12 µM) | 
29 | CN(C)C[C@H](O)COc1ccc(C23CC(C(F)(F)C(O)(Cn4cnnn4)c4ccc(F)cc4F)(C2)C3)cc1 (some centres unmarked) [Compound 56] | 0.5 (≈ 0.934 µM) | 
30 | OC(Cn1cnnn1)(c1ccc(F)cc1F)C(F)(F)C12CC(c3ccc(OCc4ccccn4)cc3)(C1)C2 (centres unmarked) [Compound 72] | 0.03 (≈ 0.0571 µM) | 
31 | CC(F)(C12CC(c3ccc(OCC(F)(F)F)cc3)(C1)C2)C(O)(Cn1cnnn1)c1ccc(F)cc1F (centres unmarked) [Compound 18] | 0.016 (≈ 0.0312 µM) | 
32 | OC(CNc1ccc(C23CC(C(F)(F)C(O)(Cn4cncn4)c4ccc(F)cc4F)(C2)C3)cn1)C(F)(F)F (centres unmarked) [Compound 100] | 0.0078 (≈ 0.0143 µM) | 
33 | OC(Cn1cnnn1)(c1ccc(F)cc1F)C(F)(F)C12CC(CN3CCC(Oc4ccccc4)CC3)(C1)C2 (centres unmarked) [Compound 80] | 0.06 (≈ 0.113 µM) | 
34 | OC(CNc1ccc(C23CC(C(F)(F)C(O)(Cn4cnnn4)c4ccc(F)cc4F)(C2)C3)cn1)C(F)(F)F (centres unmarked) [Compound 99] | 0.016 (≈ 0.0293 µM) | 
35 | CCOc1ccc(C23CC(C(F)(F)C(O)(Cn4cnnn4)c4ccc(F)cc4F)(C2)C3)cc1 (centres unmarked) [Compound 87] | 0.016 (≈ 0.0346 µM) | 
36 | N#Cc1ccc(C23CC(C(F)(F)[C@@](O)(Cn4cncn4)c4cc(F)ccc4F)(C2)C3)cc1 [Compound 29B] | 0.125 (≈ 0.283 µM) | 
37 | CN1CCN(c2ccc(C34CC(C(F)(F)C(O)(Cn5cnnn5)c5ccc(F)cc5F)(C3)C4)cn2)CC1 (centres unmarked) [Compound 117] | 0.06 (≈ 0.116 µM) | 
38 | OC(Cn1cnnn1)(c1ccc(F)cc1F)C(F)(F)C12CC(c3ccc(O[C@@H]4CCNC4)cc3)(C1)C2 (some centres unmarked) [Compound 84] | 0.25 (≈ 0.497 µM) | 
39 | O[C@](Cn1cncn1)(c1ccc(F)cc1F)C(F)(F)C12CC(C1)C2 (single isomer, unassigned) [Compound 10B] | 1 (≈ 2.93 µM) | 
